Laboratory results as given in patent US8569289B2, “Fumarate salt of 4-bromophenyl 1,4-diazabicyclo[3.2.2]nonane-4-carboxylate, crystalline forms thereof, preparation thereof and therapeutic use thereof” (Sanofi, priority 2008, dated 2013).

What was measured:
[1] = Thermal stability in the solid state - quantitative determination of nondecomposed product and impurities by HPLC; type: physicochemical; conditions: for Sum % imp. quantified (% surf.): HPLC UV 220 nm; for Non-decomposed base / product (%): HPLC, % (w/w) of nondecomposed base
Experimental: (§1) The base and the fumarate salt of the compound of formula (I) are analyzed after 1, 7 and 14 days of storage at: • 80° C.; • 80° C. and under 80% relative humidity (RH). Appearance
Quantitative Determination of the Nondecomposed Product and Percentage of Impurities
Chromatographic Conditions
Column: Inertsil ODS 3 150×4.6 mm, 5 μm, maintained at 25° C.
Buffer pH 4.5: 0.01M KH2PO4, 0.5 g/l sodium heptanesulfonate pH adjusted to 4.5 with 1M KOH
Phase A: 90 V buffer pH 4.5
• 10 V acetonitrile Phase B: 20 V buffer pH 4.5 • 80 V acetonitrile Gradient: from 100% of phase A to 80% of phase B in 40 min Flow rate: 1.0 ml/min Detection: UV, λ=220 nm (optical path: 1 cm) Solutions injected: 0.2 mg (base or salt)/ml solutions in a mixture of 50 volumes of water and 50 volumes of acetonitrile. Comment: for the quantitative determinations, the results obtained are expressed in % (w/w) of nondecomposed base (by calibrating with nondecomposed base or salt controls stored at ambient temperature).
Comment: the sum of the impurities quantified may be less after storing at 80° C. under 80% relative humidity because impurities may decompose to give products which cannot be detected by UV or which are not separated by the analytical conditions.

[2] = Instantaneous solubility tests; type: physicochemical
Experimental: The instantaneous solubilities of the base and of the fumarate salt of the compound of formula (I) were determined in the following media: • water; • buffer pH 1.2: 0.01M KH2PO4, pH adjusted with orthophosphoric acid; • buffer pH 7.2: 0.2M KH2PO4, pH adjusted with KOH; • buffer pH 9.0: 0.04M Na2B4O7.10H2O, pH adjusted with boric acid; • dimethyl sulfoxide (DMSO).
Determination of the instantaneous solubilities: successive volumes of the medium are added to the test specimen until the compound has dissolved. Stirring is carried out with a vortex mixer at ambient temperature.
Information on the corresponding classification according to the European Pharmacopoeia is also given therein.

[3] = Test of thermal stability in the solid state - appearance; type: physicochemical
Experimental: Test of thermal stability in the solid state
as §1
In contrast, the appearance of the fumarate salt of the compound of formula (I) remains unchanged.

[4] = type: physicochemical
Text: In contrast, the fumarate salt of 4-bromophenyl 1,4-diazabicyclo[3.2.2]nonane-4-carboxylate crystallizes in two nonhygroscopic polymorphic forms (forms I and II). […] This property of the two polymorphic forms of the fumarate salt of 4-bromophenyl 1,4-diazabicyclo[3.2.2]nonane-4-carboxylate is an advantage in comparison with the hydrochloride salt of 4-bromophenyl 1,4-diazabicyclo[3.2.2]nonane-4-carboxylate.

[5] = solid state, 80° C./80% RH, 7 d
[6] = solid state, 80° C./80% RH, 14 d
[7] = buffer pH 1.2, ambient temperature
[8] = buffer pH 7.2, ambient temperature
[9] = buffer pH 9.0, ambient temperature
[10] = solid state, 80° C./80% RH, 1 d

Structure (SMILES)	Sum % imp. quantified (% surf.) ([1]; Initial)	Sum % imp. quantified (% surf.) ([1]; solid state, 80° C., 7 d)	Non-decomposed base / product (%) ([1]; solid state, 80° C., 7 d)	Sum % imp. quantified (% surf.) ([1]; solid state, 80° C., 14 d)	Non-decomposed base / product (%) ([1]; solid state, 80° C., 14 d)	Sum % imp. quantified (% surf.) [1, 5] [% surf.]	Non-decomposed base / product (%) [1, 5] [%]	Sum % imp. quantified (% surf.) [1, 6] [% surf.]	Non-decomposed base / product (%) [1, 6] [%]	Solubility classification according to the European Pharmacopoeia ([2]; DMSO)	Instantaneous solubility ([2]; DMSO, ambient temperature)	Solubility classification according to the European Pharmacopoeia ([2]; Water)	Instantaneous solubility ([2]; Water, ambient temperature)	Solubility classification according to the European Pharmacopoeia ([2]; buffer pH 1.2)	Instantaneous solubility [2, 7]	Solubility classification according to the European Pharmacopoeia ([2]; buffer pH 7.2)	Instantaneous solubility [2, 8]	Solubility classification according to the European Pharmacopoeia ([2]; buffer pH 9.0)	Instantaneous solubility [2, 9]	Appearance ([3]; Initial appearance)	also measured
O=C(Oc1ccc(Br)cc1)N1CCN2CCC1CC2 [Base, 4-Bromophenyl 1,4-diazabicyclo[3.2.2]nonane-4-carboxylate]	4.02	3.57	100	3.14	99.9	4.37	98.7	4.53	98.3	Soluble	~75 g of product/l	Slightly soluble	<2 g of product/l	Freely soluble	140 g of product/l	Slightly soluble	<2 g of product/l	Slightly soluble	<2 g of product/l	Virtually white	Appearance ([3]; solid state, 80° C., 1 d): Pale yellow; Appearance ([3]; solid state, 80° C., 7 d): Pale yellow; Appearance ([3]; solid state, 80° C., 14 d): Pale yellow; Appearance [3, 10]: Yellow-brown; Appearance [3, 5]: Brown; Appearance [3, 6]: Brown
O=C(O)/C=C/C(=O)O.O=C(Oc1ccc(Br)cc1)N1CCN2CCC1CC2 [Fumarate, fumarate salt of 4-bromophenyl 1,4-diazabicyclo[3.2.2]nonane-4-carboxylate]	0.32	0.60	99.6	0.53	100	0.74	99.7	0.83	100	Freely soluble	~140 g of product/l	Sparingly soluble	~27 g of product/l	Sparingly soluble	~16 g of product/l	Soluble	~75 g of product/l	Soluble	~68 g of product/l	White powder	Appearance ([3]; solid state, 80° C., 1 d): unchanged; Appearance ([3]; solid state, 80° C., 7 d): unchanged; Appearance ([3]; solid state, 80° C., 14 d): unchanged; Appearance [3, 10]: unchanged; Appearance [3, 5]: unchanged; Appearance [3, 6]: unchanged
O=C(O)/C=C/C(=O)O.O=C(Oc1ccc(Br)cc1)N1CCN2CCC1CC2 [form I, fumarate salt of 4-bromophenyl 1,4-diazabicyclo[3.2.2]nonane-4-carboxylate]	–	–	–	–	–	–	–	–	–	–	–	–	–	–	–	–	–	–	–	–	Hygroscopicity of the polymorphic form [4]: nonhygroscopic; Impact of water on the crystalline form ([4]; water in the vapor or liquid form): no impact on the crystalline form
Cl.O=C(Oc1ccc(Br)cc1)N1CCN2CCC1CC2 [hydrochloride, hydrochloride salt of 4-bromophenyl 1,4-diazabicyclo[3.2.2]nonane-4-carboxylate]	–	–	–	–	–	–	–	–	–	–	–	–	–	–	–	–	–	–	–	–	Forms shown by the water sorption/desorption isotherm [4]: present in a hemihydrate form and two anhydrous forms; Stability of the water stoichiometry ([4]; under the effect of temperature or when flushing with nitrogen): has a tendency to lose its water stoichiometry
